# Results: patent US8394786B2, “Quinazoline derivatives” (Janssen Pharmaceutica N.V., priority 2003, dated 2013)
# Tested on: SKOV3 cells
# Test: Serum starved proliferation assay on the ovarian carcinoma SKOV3 cells (C3)
# Type: cell-based
# Conditions: Homo sapiens, SK-OV-3, 72 h, EGF stimulated (100 ng/ml, 72 hours, serum free) or 72 hours with compounds; MTT cell viability assay; read-out: SKOV3 cell (C3): pIC50 (converted)
# Description: The ovarian carcinoma cell line (SKOV3) was used in an epidermal growth factor stimulated cell proliferation assay, to assess the inhibitory effect of the compounds on EGF in whole cells.
# In a first step the SKOV3 cells were incubated for 24 hours in the presence of 10% FCS serum. In the second step the cells were incubated with the compounds to be tested in a serum free condition (37° C. and 5% (v/v) CO2) and subsequently stimulated for 72 hours with EGF at a final concentration of 100 ng/ml. The effect of the compounds on the EGF stimulation was finally assessed in a standard MTT cell viability assay.
# Alternatively, the SKOV3 cells were incubated for 24 hours in the presence of 10% FCS serum. In the second step the cells were incubated for 72 hours with the compounds to be tested and the effect of the compounds on cell proliferation was finally assessed in a standard MTT cell viability assay.
row,IC50,Structure (SMILES)
1,0.398 µM,"COc1cc2ncnc3c2cc1OCCN(C(=O)CN1CCN(C)CC1)CC(=O)NCCCc1ccc(Cl)cc1N3 [Compound 51, 4,6-ethanediylidenepyrimido[4,5-b][6,1,9,12]benzoxatriazacycloheptadecin-12(13H)-one, 19-chloro-8,9,10,11,14,15,16,21-octahydro-22-methoxy-10-[(4-methyl-1-piperazinyl)acetyl]-]"
2,10 µM,"CCC(C)C1NC(=O)COc2cc3c(ncnc3cc2OC)Nc2ccccc2CNC1=O (centres unmarked) [Compound 124, 4,6-ethanediylidenepyrimido[4,5-b][6,1,9,12]benzoxatriazacyclopentadecine-9,12(8H,13H)-dione, 10,11,14,19-tetrahydro-20-methoxy-11-(1-methylpropyl)-]"
3,10 µM,"COc1cc2ncnc3c2cc1OCC(=O)NC(C)(C)C(=O)NCc1ccc(Cl)cc1N3 [Compound 132, 4,6-ethanediylidenepyrimido[4,5-b][6,1,9,12]benzoxatriazacyclopentadecine-9,12(8H,13H)-dione, 17-chloro-10,11,14,19-tetrahydro-20-methoxy-11,11-dimethyl-]"
4,10 µM,"COc1cc2ncnc3c2cc1OCC(=O)NCC(=O)NCc1ccccc1N3 [Compound 156, 4,6-ethanediylidenepyrimido[4,5-b][6,1,9,12]benzoxatriazacyclopentadecine-9,12(8H,13H)-dione, 10,11,14,19-tetrahydro-20-methoxy-]"
5,10 µM,"COc1cc2ncnc3c2cc1OCC(=O)NCCC(=O)NCc1ccccc1N3 [Compound 157, 4,6-ethanediylidene-8H-pyrimido[4,5-b][6,1,9,13]benzoxatriazacyclohexadecine-9,13(10H,14H)-dione, 11,12,15,20-tetrahydro-21-methoxy-]"
